Assays:
microsomal stability [1] = type: in vitro ADME, Rat; conditions: for microsomal stability (% at time): Rat
Experimental: (§1) The microsomal stability of N-(2,6-dichloro-3,5-dimethoxyphenyl)-1-(6-((4-(4-ethylpiperazin-1-yl)phenyl)amino)pyrimidin-4-yl)-1H-benz[d]imidazol-2-amine synthesized in Example 1, as a representative compound of the present invention, was evaluated.

MAP4K5 = MAP4K5 (Homo sapiens, UniProt Q9Y4K4); test: kinase inhibition activity, full kinase panel; type: biochemical; conditions: 1 μM of the compound; read-out: kinase activity inhibited (% inhibition)
Chain of MAP4K5 (Q9Y4K4 whole entry): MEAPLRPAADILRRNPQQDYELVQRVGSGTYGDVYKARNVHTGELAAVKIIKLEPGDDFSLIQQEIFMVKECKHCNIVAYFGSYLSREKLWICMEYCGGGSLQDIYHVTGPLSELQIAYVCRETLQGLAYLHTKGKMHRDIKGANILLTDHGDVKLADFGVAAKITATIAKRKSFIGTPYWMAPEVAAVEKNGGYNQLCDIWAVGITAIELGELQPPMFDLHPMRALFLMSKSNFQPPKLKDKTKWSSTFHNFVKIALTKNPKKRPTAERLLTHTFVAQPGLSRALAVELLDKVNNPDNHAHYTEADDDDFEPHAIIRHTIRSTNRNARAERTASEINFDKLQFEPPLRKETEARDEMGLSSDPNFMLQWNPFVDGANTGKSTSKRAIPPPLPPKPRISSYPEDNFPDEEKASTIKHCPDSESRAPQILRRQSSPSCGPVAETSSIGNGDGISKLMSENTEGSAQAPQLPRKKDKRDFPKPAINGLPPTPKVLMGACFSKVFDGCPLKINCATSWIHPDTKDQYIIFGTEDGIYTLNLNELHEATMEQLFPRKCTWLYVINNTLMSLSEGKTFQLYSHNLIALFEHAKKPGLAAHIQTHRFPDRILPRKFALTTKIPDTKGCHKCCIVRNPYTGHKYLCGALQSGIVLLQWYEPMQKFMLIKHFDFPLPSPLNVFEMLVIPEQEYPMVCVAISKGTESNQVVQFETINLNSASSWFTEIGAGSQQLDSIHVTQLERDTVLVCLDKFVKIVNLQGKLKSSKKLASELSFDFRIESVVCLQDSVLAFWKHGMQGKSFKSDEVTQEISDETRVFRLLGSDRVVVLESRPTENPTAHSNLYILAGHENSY
Experimental: (§2) In order to measure the inhibition activity (% inhibition) of the compound of the present invention against protein kinases, a biochemical assay was conducted using a full kinase panel consisting of 340 kinases. As a representative compound of the present invention, N-(2,6-dichloro-3,5-dimethoxyphenyl)-1-(6-((4-(4-ethylpiperazin-1-yl)phenyl)amino)pyrimidin-4-yl)-1H-benz[d]imidazol-2-amine synthesized in Example 1 was used.
(§3) The kinases whose activity is inhibited by 50% or more when treated with 1 μM of the compound of Example 1 are listed in Table 1.

LCK = LCK (Homo sapiens, UniProt P06239); test: kinase inhibition activity, full kinase panel; type: biochemical; conditions: 1 μM of the compound; read-out: kinase activity inhibited (% inhibition)
Chain of LCK (P06239 whole entry): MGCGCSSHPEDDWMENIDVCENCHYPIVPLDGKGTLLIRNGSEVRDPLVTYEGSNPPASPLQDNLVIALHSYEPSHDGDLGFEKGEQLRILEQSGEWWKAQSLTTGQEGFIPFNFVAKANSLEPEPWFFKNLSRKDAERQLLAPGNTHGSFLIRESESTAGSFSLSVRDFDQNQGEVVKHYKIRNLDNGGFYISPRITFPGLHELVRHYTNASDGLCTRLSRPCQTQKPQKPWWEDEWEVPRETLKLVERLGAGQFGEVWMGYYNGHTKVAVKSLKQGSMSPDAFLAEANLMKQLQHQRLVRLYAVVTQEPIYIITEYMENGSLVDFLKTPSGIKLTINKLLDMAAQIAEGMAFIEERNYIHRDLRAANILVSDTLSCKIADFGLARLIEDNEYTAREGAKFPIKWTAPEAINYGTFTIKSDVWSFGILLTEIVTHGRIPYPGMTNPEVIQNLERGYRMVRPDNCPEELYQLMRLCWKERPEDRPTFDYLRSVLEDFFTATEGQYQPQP
Experimental: as §2, §3

TNK1 = TNK1 (Homo sapiens, UniProt Q13470); test: kinase inhibition activity, full kinase panel; type: biochemical; conditions: 1 μM of the compound; read-out: kinase activity inhibited (% inhibition)
Experimental: as §2, §3

ALK = ALK (Homo sapiens, UniProt Q9UM73); test: kinase inhibition activity, full kinase panel; type: biochemical; conditions: 1 μM of the compound; read-out: kinase activity inhibited (% inhibition)
Experimental: as §2, §3

FLT3 = FLT3 (Homo sapiens, UniProt P36888); test: kinase inhibition activity, full kinase panel; type: biochemical; conditions: 1 μM of the compound; read-out: kinase activity inhibited (% inhibition)
Experimental: as §2, §3

FMS = FMS (Homo sapiens, UniProt P07333); test: kinase inhibition activity, full kinase panel; type: biochemical; conditions: 1 μM of the compound; read-out: kinase activity inhibited (% inhibition)
Experimental: as §2, §3

YES = YES (Homo sapiens, UniProt P07947); test: kinase inhibition activity, full kinase panel; type: biochemical; conditions: 1 μM of the compound; read-out: kinase activity inhibited (% inhibition)
Experimental: as §2, §3

FGFR3 = FGFR3 (Homo sapiens, UniProt P22607); test: kinase inhibition activity, full kinase panel; type: biochemical; conditions: 1 μM of the compound; read-out: kinase activity inhibited (% inhibition)
Experimental: as §2, §3

TAOK2 = TAOK2 (Homo sapiens, UniProt Q9UL54); test: kinase inhibition activity, full kinase panel; type: biochemical; conditions: 1 μM of the compound; read-out: kinase activity inhibited (% inhibition)
Experimental: as §2, §3

BLK = BLK (Homo sapiens, UniProt P51451); test: kinase inhibition activity, full kinase panel; type: biochemical; conditions: 1 μM of the compound; read-out: kinase activity inhibited (% inhibition)
Experimental: as §2, §3

ABL2 = ABL2 (Homo sapiens, UniProt P42684); test: kinase inhibition activity, full kinase panel; type: biochemical; conditions: 1 μM of the compound; read-out: kinase activity inhibited (% inhibition)
Experimental: as §2, §3

MEKK2 = MEKK2 (Homo sapiens, UniProt Q9Y2U5); test: kinase inhibition activity, full kinase panel; type: biochemical; conditions: 1 μM of the compound; read-out: kinase activity inhibited (% inhibition)
Chain of MEKK2 (Q9Y2U5 whole entry): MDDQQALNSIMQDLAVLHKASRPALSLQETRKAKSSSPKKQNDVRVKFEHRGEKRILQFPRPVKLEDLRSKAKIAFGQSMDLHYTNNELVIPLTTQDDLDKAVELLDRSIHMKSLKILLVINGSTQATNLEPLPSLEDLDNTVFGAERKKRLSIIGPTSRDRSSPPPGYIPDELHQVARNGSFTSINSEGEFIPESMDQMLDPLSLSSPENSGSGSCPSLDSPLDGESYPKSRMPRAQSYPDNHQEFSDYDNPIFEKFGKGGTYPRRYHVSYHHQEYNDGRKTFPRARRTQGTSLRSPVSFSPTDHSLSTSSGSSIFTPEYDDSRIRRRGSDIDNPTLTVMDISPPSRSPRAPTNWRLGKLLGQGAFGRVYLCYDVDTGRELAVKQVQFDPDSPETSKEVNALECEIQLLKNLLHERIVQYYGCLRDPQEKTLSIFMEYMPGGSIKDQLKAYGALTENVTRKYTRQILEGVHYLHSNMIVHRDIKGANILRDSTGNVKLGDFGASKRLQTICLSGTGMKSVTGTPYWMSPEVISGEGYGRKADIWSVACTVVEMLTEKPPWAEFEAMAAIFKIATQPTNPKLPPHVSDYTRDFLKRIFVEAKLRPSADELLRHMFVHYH
Experimental: as §2, §3

[2] = target: (Homo sapiens, UniProt P09769); test: kinase inhibition activity, full kinase panel; type: biochemical; conditions: 1 μM of the compound; read-out: kinase activity inhibited (% inhibition)
Chain of (Homo sapiens, UniProt P09769) (P09769 2-529 limits assumed): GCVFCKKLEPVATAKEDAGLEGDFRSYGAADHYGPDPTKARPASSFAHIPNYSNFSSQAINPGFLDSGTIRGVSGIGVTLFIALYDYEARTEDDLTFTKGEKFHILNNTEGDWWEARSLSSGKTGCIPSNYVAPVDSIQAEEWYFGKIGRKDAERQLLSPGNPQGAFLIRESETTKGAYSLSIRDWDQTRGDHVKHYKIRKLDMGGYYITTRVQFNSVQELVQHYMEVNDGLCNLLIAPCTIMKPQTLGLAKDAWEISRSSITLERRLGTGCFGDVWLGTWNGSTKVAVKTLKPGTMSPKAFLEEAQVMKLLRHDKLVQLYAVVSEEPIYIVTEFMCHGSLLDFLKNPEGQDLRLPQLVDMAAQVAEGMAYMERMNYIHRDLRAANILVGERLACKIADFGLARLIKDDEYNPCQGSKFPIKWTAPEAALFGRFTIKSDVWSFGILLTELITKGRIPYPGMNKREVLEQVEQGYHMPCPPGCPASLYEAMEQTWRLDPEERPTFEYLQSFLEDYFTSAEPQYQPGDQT
Experimental: as §2, §3

DYRK1 = DYRK1 (Homo sapiens, UniProt Q13627); test: kinase inhibition activity, full kinase panel; type: biochemical; conditions: 1 μM of the compound; read-out: kinase activity inhibited (% inhibition)
Experimental: as §2, §3

LYN B = LYN B (Homo sapiens, UniProt P07948); test: kinase inhibition activity, full kinase panel; type: biochemical; conditions: 1 μM of the compound; read-out: kinase activity inhibited (% inhibition)
Experimental: as §2, §3

BMX = BMX (Homo sapiens, UniProt P51813); test: kinase inhibition activity, full kinase panel; type: biochemical; conditions: 1 μM of the compound; read-out: kinase activity inhibited (% inhibition)
Experimental: as §2, §3

Fyn = Fyn (Homo sapiens, UniProt P06241); test: kinase inhibition activity, full kinase panel; type: biochemical; conditions: 1 μM of the compound; read-out: kinase activity inhibited (% inhibition)
Chain of Fyn (P06241 whole entry): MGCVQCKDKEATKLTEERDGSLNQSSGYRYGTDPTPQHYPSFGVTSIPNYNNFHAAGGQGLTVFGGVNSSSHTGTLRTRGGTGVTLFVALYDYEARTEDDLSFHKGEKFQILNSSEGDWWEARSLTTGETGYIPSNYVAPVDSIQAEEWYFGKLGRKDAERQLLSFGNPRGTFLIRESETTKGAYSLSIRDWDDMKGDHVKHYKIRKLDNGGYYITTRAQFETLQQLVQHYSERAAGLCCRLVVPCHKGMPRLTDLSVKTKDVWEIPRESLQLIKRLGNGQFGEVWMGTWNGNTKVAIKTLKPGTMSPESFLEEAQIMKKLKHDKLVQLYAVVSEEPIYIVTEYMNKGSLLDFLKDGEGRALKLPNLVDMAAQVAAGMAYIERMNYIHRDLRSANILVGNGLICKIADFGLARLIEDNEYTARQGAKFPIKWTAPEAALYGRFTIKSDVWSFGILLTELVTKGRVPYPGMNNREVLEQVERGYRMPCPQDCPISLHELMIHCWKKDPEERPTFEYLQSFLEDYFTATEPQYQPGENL
Experimental: as §2, §3

DDR1 = DDR1 (Homo sapiens, UniProt Q08345); test: kinase inhibition activity, full kinase panel; type: biochemical; conditions: 1 μM of the compound; read-out: kinase activity inhibited (% inhibition)
Experimental: as §2, §3

FGFR2 = FGFR2 (Homo sapiens, UniProt P21802); test: kinase inhibition activity, full kinase panel; type: biochemical; conditions: 1 μM of the compound; read-out: kinase activity inhibited (% inhibition)
Experimental: as §2, §3

LIMK1 = LIMK1 (Homo sapiens, UniProt P53667); test: kinase inhibition activity, full kinase panel; type: biochemical; conditions: 1 μM of the compound; read-out: kinase activity inhibited (% inhibition)
Chain of LIMK1 (P53667 whole entry): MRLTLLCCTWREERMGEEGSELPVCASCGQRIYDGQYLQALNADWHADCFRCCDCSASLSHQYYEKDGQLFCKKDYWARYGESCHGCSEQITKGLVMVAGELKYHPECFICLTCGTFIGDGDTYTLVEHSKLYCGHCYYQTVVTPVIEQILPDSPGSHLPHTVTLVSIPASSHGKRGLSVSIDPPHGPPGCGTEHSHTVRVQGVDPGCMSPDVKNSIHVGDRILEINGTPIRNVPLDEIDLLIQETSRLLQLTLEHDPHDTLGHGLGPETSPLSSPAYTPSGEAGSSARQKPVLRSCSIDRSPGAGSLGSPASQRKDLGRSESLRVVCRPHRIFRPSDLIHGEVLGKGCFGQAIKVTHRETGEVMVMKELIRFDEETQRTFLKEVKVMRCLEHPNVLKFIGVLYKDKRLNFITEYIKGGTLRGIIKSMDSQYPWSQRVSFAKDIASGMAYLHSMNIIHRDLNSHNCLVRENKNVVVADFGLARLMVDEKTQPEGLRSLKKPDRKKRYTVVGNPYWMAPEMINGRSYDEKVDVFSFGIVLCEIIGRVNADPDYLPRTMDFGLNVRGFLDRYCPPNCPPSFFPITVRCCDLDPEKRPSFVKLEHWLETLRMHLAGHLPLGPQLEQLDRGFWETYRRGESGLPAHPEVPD
Experimental: as §2, §3

ACK1 = ACK1 (Homo sapiens, UniProt Q07912); test: kinase inhibition activity, full kinase panel; type: biochemical; conditions: 1 μM of the compound; read-out: kinase activity inhibited (% inhibition)
Experimental: as §2, §3

SIK3 = SIK3 (Homo sapiens, UniProt Q9Y2K2); test: kinase inhibition activity, full kinase panel; type: biochemical; conditions: 1 μM of the compound; read-out: kinase activity inhibited (% inhibition)
Experimental: as §2, §3

SIK2 = SIK2 (Homo sapiens, UniProt Q9H0K1); test: kinase inhibition activity, full kinase panel; type: biochemical; conditions: 1 μM of the compound; read-out: kinase activity inhibited (% inhibition)
Experimental: as §2, §3

DDR2 = DDR2 (Homo sapiens, UniProt Q16832); test: kinase inhibition activity, full kinase panel; type: biochemical; conditions: 1 μM of the compound; read-out: kinase activity inhibited (% inhibition)
Experimental: as §2, §3

LYN = LYN (Homo sapiens, UniProt P07948); test: kinase inhibition activity, full kinase panel; type: biochemical; conditions: 1 μM of the compound; read-out: kinase activity inhibited (% inhibition)
Chain of LYN (P07948 whole entry): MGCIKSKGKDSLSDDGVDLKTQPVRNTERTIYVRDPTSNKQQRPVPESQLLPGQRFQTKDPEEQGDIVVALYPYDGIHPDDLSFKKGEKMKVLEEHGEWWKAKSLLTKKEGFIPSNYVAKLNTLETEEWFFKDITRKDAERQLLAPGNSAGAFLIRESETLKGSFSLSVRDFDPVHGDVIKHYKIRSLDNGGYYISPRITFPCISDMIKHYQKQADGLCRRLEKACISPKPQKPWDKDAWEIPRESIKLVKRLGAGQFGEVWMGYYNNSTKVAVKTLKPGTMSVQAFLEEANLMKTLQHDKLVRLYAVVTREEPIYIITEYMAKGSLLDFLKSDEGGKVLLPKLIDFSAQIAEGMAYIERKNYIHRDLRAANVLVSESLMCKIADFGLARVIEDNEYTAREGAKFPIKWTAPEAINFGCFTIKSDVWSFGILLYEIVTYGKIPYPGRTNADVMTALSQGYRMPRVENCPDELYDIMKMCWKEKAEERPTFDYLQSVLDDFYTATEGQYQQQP
Experimental: as §2, §3

DYRK1B = DYRK1B (Homo sapiens, UniProt Q9Y463); test: kinase inhibition activity, full kinase panel; type: biochemical; conditions: 1 μM of the compound; read-out: kinase activity inhibited (% inhibition)
Experimental: as §2, §3

SIK1 = SIK1 (Homo sapiens, UniProt P57059); test: kinase inhibition activity, full kinase panel; type: biochemical; conditions: 1 μM of the compound; read-out: kinase activity inhibited (% inhibition)
Chain of SIK1 (P57059 whole entry): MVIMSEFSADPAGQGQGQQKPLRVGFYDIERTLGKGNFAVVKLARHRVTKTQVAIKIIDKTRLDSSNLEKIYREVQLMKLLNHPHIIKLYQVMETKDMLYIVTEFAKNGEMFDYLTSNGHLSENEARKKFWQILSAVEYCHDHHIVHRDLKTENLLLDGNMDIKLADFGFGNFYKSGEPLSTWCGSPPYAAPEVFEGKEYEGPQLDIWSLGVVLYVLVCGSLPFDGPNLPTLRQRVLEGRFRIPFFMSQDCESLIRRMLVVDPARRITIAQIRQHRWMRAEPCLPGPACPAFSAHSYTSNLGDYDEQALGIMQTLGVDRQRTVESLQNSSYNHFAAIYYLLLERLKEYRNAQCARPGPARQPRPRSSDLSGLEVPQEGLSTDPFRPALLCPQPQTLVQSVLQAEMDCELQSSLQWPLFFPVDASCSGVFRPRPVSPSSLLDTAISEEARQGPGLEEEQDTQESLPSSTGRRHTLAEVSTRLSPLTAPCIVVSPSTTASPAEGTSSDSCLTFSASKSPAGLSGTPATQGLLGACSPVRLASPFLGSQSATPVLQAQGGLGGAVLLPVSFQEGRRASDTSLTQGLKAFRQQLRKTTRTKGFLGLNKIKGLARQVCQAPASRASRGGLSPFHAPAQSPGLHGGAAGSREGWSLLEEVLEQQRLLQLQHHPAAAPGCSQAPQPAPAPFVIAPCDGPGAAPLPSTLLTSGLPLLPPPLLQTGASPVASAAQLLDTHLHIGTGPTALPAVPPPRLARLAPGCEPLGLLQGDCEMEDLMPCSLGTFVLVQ
Experimental: as §2, §3

HER2 = HER2 (Homo sapiens, UniProt P04626); test: kinase inhibition activity, full kinase panel; type: biochemical; conditions: 1 μM of the compound; read-out: kinase activity inhibited (% inhibition)
Experimental: as §2, §3

Hck = Hck (Homo sapiens, UniProt P08631); test: kinase inhibition activity, full kinase panel; type: biochemical; conditions: 1 μM of the compound; read-out: kinase activity inhibited (% inhibition)
Experimental: as §2, §3

DYRK2 = DYRK2 (Homo sapiens, UniProt Q92630); test: kinase inhibition activity, full kinase panel; type: biochemical; conditions: 1 μM of the compound; read-out: kinase activity inhibited (% inhibition)
Experimental: as §2, §3

FGFR4 = FGFR4 (Homo sapiens, UniProt P22455); test: kinase inhibition activity, full kinase panel; type: biochemical; conditions: 1 μM of the compound; read-out: kinase activity inhibited (% inhibition)
Experimental: as §2, §3

MEKK3 = MEKK3 (Homo sapiens, UniProt Q99759); test: kinase inhibition activity, full kinase panel; type: biochemical; conditions: 1 μM of the compound; read-out: kinase activity inhibited (% inhibition)
Experimental: as §2, §3

TIE2 = TIE2 (Homo sapiens, UniProt Q02763); test: kinase inhibition activity, full kinase panel; type: biochemical; conditions: 1 μM of the compound; read-out: kinase activity inhibited (% inhibition)
Experimental: as §2, §3

TRKA = TRKA (Homo sapiens, UniProt P04629); test: kinase inhibition activity, full kinase panel; type: biochemical; conditions: 1 μM of the compound; read-out: kinase activity inhibited (% inhibition)
Experimental: as §2, §3

FGFR1 = FGFR1 (Homo sapiens, UniProt P11362); test: kinase inhibition activity, full kinase panel; type: biochemical; conditions: 1 μM of the compound; read-out: kinase activity inhibited (% inhibition)
Experimental: as §2, §3

microsomal stability [3] = type: in vitro ADME, Human; conditions: for microsomal stability (% at time): Human
Experimental: as §1

microsomal stability (% at time) (microsomal stability [1]; 0 min): 100.00%
microsomal stability (% at time) (microsomal stability [1]; 5 min): 95.53%
microsomal stability (% at time) (microsomal stability [1]; 10 min): 88.45%
microsomal stability (% at time) (microsomal stability [1]; 15 min): 82.61%
microsomal stability (% at time) (microsomal stability [1]; 30 min): 65.16%
microsomal stability (% at time) (microsomal stability [1]; 45 min): 45.27%
microsomal stability (% at time) (microsomal stability [1]; 60 min): 44.31%
half-life (microsomal stability [1]; microsomes, Rat microsomal stability): 39.6 min
inhibition at 1 µM (MAP4K5): ≥ 50%
inhibition at 1 µM (LCK): ≥ 50%
inhibition at 1 µM (TNK1): ≥ 50%
inhibition at 1 µM (ALK): ≥ 50%
inhibition at 1 µM (FLT3): ≥ 50%
inhibition at 1 µM (FMS): ≥ 50%
inhibition at 1 µM (YES): ≥ 50%
inhibition at 1 µM (FGFR3): ≥ 50%
inhibition at 1 µM (TAOK2): ≥ 50%
inhibition at 1 µM (BLK): ≥ 50%
inhibition at 1 µM (ABL2): ≥ 50%
inhibition at 1 µM (MEKK2): ≥ 50%
inhibition at 1 µM [2]: ≥ 50%
inhibition at 1 µM (DYRK1): ≥ 50%
inhibition at 1 µM (LYN B): ≥ 50%
inhibition at 1 µM (BMX): ≥ 50%
inhibition at 1 µM (Fyn): ≥ 50%
inhibition at 1 µM (DDR1): ≥ 50%
inhibition at 1 µM (FGFR2): ≥ 50%
inhibition at 1 µM (LIMK1): ≥ 50%
inhibition at 1 µM (ACK1): ≥ 50%
inhibition at 1 µM (SIK3): ≥ 50%
inhibition at 1 µM (SIK2): ≥ 50%
inhibition at 1 µM (DDR2): ≥ 50%
inhibition at 1 µM (LYN): ≥ 50%
inhibition at 1 µM (DYRK1B): ≥ 50%
inhibition at 1 µM (SIK1): ≥ 50%
inhibition at 1 µM (HER2): ≥ 50%
inhibition at 1 µM (Hck): ≥ 50%
inhibition at 1 µM (DYRK2): ≥ 50%
inhibition at 1 µM (FGFR4): ≥ 50%
inhibition at 1 µM (MEKK3): ≥ 50%
inhibition at 1 µM (TIE2): ≥ 50%
inhibition at 1 µM (TRKA): ≥ 50%
inhibition at 1 µM (FGFR1): ≥ 50%
microsomal stability (% at time) (microsomal stability [3]; 0 min): 100.00%
microsomal stability (% at time) (microsomal stability [3]; 5 min): 80.36%
microsomal stability (% at time) (microsomal stability [3]; 10 min): 76.63%
microsomal stability (% at time) (microsomal stability [3]; 15 min): 64.04%
microsomal stability (% at time) (microsomal stability [3]; 30 min): 51.45%
microsomal stability (% at time) (microsomal stability [3]; 45 min): 37.62%
microsomal stability (% at time) (microsomal stability [3]; 60 min): 36.17%
half-life (microsomal stability [3]; microsomes, Human microsomal stability): 33.9 min
SMILES: CCN1CCN(c2ccc(Nc3cc(-n4c(Nc5c(Cl)c(OC)cc(OC)c5Cl)nc5ccccc54)ncn3)cc2)CC1 [Example 1, N-(2,6-dichloro-3,5-dimethoxyphenyl)-1-(6-((4-(4-ethylpiperazin-1-yl)phenyl)amino)pyrimidin-4-yl)-1H-benz[d]imidazol-2-amine]

From patent publication US9586936B2, “Heteroarylamine derivatives as protein kinase inhibitors” (KOREA INSTITUTE OF SCIENCE AND TECHNOLOGY, priority 2014, dated 2017)
